Reference: ChEMBL document CHEMBL4715767, “Pterin-7-carboxamides as a new class of aldose reductase inhibitors” (Bioorg Med Chem Lett, 2016)
pIC50: −log10 of the molar value.

Biological target: T1, Aldo-keto reductase family 1 member B1 (Homo sapiens, UniProt P15121)
Test: Inhibition of recombinant human ALR2 at 10.5 mM using D,L-glyceraldehyde and NADPH as substrate preincubated for 3 mins followed by substrate addition and measured for 3 mins by spectrophotometric analysis relative to control
Settings: time 6.0 min

SMILES | inhibition
Nc1nc2nc(C(=O)NCC(=O)N[C@@H](Cc3ccccc3)C(=O)O)cnc2c(=O)[nH]1 | 9%

Biological target: T1, Aldo-keto reductase family 1 member B1
Test: Inhibition of recombinant human ALR2 using D,L-glyceraldehyde and NADPH as substrate preincubated for 3 mins followed by substrate addition and measured for 3 mins by spectrophotometric analysis
Settings: not given

SMILES | IC50
Nc1nc2ncc(C(=O)O)nc2c(=O)[nH]1 [PTERIN-6-CARBOXYLIC ACID] | Nd(Insoluble)

Same assay, conditions: read-out: IC50

SMILES | pIC50
Nc1nc2nc(C(=O)N[C@H](CCc3ccccc3)C(=O)O)cnc2c(=O)[nH]1 | 4.38
CC(C)C[C@@H](NC(=O)c1cnc2c(=O)[nH]c(N)nc2n1)C(=O)O | 4.01
Nc1nc2nc(C(=O)O)cnc2c(=O)[nH]1 | 4.58
CC(C)[C@@H](NC(=O)c1cnc2c(=O)[nH]c(N)nc2n1)C(=O)O | 3.71
Nc1nc2nc(C(=O)N[C@@H](CO)C(=O)O)cnc2c(=O)[nH]1 | 4.53
Nc1nc2ncc(CNc3ccc(C(=O)N[C@@H](CCC(=O)O)C(=O)O)cc3)nc2c(=O)[nH]1 [FOLIC ACID] | 4.28
CC[C@@H](C)[C@@H](NC(=O)c1cnc2c(=O)[nH]c(N)nc2n1)C(=O)O | 3.56
Nc1nc2nc(C(=O)NCCCC(=O)O)cnc2c(=O)[nH]1 | 4.59
Nc1nc2nc(C(=O)NCCCCC(=O)O)cnc2c(=O)[nH]1 | 4.93
Nc1nc2nc(C(=O)N[C@@H](Cc3ccc(O)cc3)C(=O)O)cnc2c(=O)[nH]1 | 3.67
Nc1nc2nc(C(=O)N[C@H](CO)C(=O)O)cnc2c(=O)[nH]1 | 3.89
C[C@@H](NC(=O)c1cnc2c(=O)[nH]c(N)nc2n1)C(=O)O | 4.14
C[C@H](NC(=O)c1cnc2c(=O)[nH]c(N)nc2n1)C(=O)O | 4.91
Nc1nc2nc(C(=O)N[C@@H](Cc3ccccc3)C(=O)O)cnc2c(=O)[nH]1 | 4.34
Nc1nc2nc(C(=O)NCCCCCC(=O)O)cnc2c(=O)[nH]1 | 5.40
CC(C)[C@H](NC(=O)c1cnc2c(=O)[nH]c(N)nc2n1)C(=O)O | 4.08
Nc1nc2nc(C(=O)N[C@H](Cc3ccccc3)C(=O)O)cnc2c(=O)[nH]1 | 4.17
Nc1nc2nc(C(=O)N[C@@H](CCc3ccccc3)C(=O)O)cnc2c(=O)[nH]1 | 4.60
Nc1nc2nc(C(=O)NCCC(=O)O)cnc2c(=O)[nH]1 | 4.76
Nc1nc2nc(C(=O)N[C@@H](C(=O)O)c3ccccc3)cnc2c(=O)[nH]1 | 4.25
Nc1nc2nc(C(=O)NCC(=O)O)cnc2c(=O)[nH]1 | 5.71
CC(C)C[C@H](NC(=O)c1cnc2c(=O)[nH]c(N)nc2n1)C(=O)O | 4.21
Nc1nc2nc(C(=O)N[C@H](Cc3ccc(O)cc3)C(=O)O)cnc2c(=O)[nH]1 | 3.24
Nc1nc2nc(C(=O)N[C@H](C(=O)O)c3ccccc3)cnc2c(=O)[nH]1 | 4.37
CC[C@H](C)[C@H](NC(=O)c1cnc2c(=O)[nH]c(N)nc2n1)C(=O)O | 4.16
